Test results reported in patent US20230053473A1, “ENHANCING EXPRESSION OF LINE-1 ENCODED ORF2P FOR CANCER THERAPEUTICS” (The Johns Hopkins University, priority 2019, published 2023).

Tests used:
PKR = PKR (Homo sapiens, UniProt P19525); conditions: in vitro, cited from earlier work
RPA2 = experiment: Western blot of chromatin-bound RPA2; assay type: cell-based; conditions: RPE, chromatin-bound protein fractions; 1 μM
Procedure: FIGS. 6A-6G. LINE-1 activity induces replication stress. 6A) Median count of sgRNAs targeting replication stress signaling genes ATRIP and the 9-1-1 complex (HUS1 and RAD1) during the screen. Error bars indicate 95% confidence intervals. 6B) Clonogenic assay of LINE-1(+) RPE cells (induced with 1 μg/ml doxycycline) with CRISPR-knockout of ATRIP compared to non-targeting-control (NTC). Error bars indicate SEM, n=3 independent experiments. P value is calculated with an unpaired two-sided T test. 6C) Clonogenic assay of LINE-1(+) RPE cells (induced with 1 μg/ml doxycycline) with drug inhibition of ATR kinase by 1 μM VE-821 compared to vehicle (DMSO). Error bars indicate SEM, n=3 independent experiments. P value is calculated with an unpaired two-sided T test. 6D) Western blot of RPA2 occupancy on chromatin induced by LINE-1 compared to luciferase control after 72 hours of expression in RPE. Chromatin-bound protein lysates were used. […] Relative signal intensity for n=2 independent experiments ±SEM is quantified. […] Statistical significance is assessed by ANOVA (p=0.0007). […]
Cells were lysed in RIPA buffer with protease/phosphatase inhibitor (cat#5872, Cell Signaling Technology, Danvers, Mass.) or Laemmli Sample Buffer (cat#1610747, Biorad, Hercules, Calif.) by sonication. […] Quantifications were carried out using Image Studio v4.0. […]

LINE-1(+) RPE cells = experiment: Clonogenic growth assay, LINE-1(+) cells; assay type: cell-based
Procedure: (§1) Viability was determined by clonogenic growth or CellTiter-Glo assay (Promega, Madison, Wis.). WT RPE were assessed by clonogenic growth by transfecting 1e5 cells with 2 μg eGFP (pDA083) or 3 μg LINE-1 (pDA077) plasmid to achieve equimolar ratios. Cells were split to 10 cm growth dishes and selected with G418 24 hours later. In Tet-On assays, 500 cells were plated and doxycycline was added to activate transgene expression. For MMC sensitivity experiments, cells were treated with 100 pM, 1 nM, 10 nM, and 100 nM for 24 hours on day 2 after plating. In VE-821 sensitivity, cells were treated with 1 μM drug or DMSO vehicle throughout the duration of the experiment. For assays in CRISPR knockout cells, knockout cell pools were generated by infecting TP53^KD Tet-On RPE cells with lentivirus encoding either non-targeting control or a gene targeting guide and selecting with puromycin for 1 week. For all assays, after 10-14 days of L1 or control expression, colonies were washed with PBS and fixed (6% gluteraldehyde, 0.5% crystal violet) for 10 minutes. Plates were rinsed in water and air dried, then imaged on a flatbed scanner. Colonies with >50 cells were counted.

FANCD2 = experiment: Western blot of FANCD2 monoubiquitination; assay type: cell-based; conditions: NTC-treated cells; 24-hour treatment with 1 μg/ml
Source text: FIGS. 5A-5H. The Fanconi Anemia (FA) pathway is essential in p53-deficient cells. 5A) Network plot of 75 DNA repair genes identified in the screen. Edges indicate known physical interactions. This network is enriched for Fanconi anemia genes (blue nodes). 5B) Model of FA complexes responding to a DNA lesion (vertical line) encountered by a replication fork (blue line=genomic DNA; green line=nascent DNA). Genes are color coded based on the performance of their knockouts in the screen. 5C) Western blot of FANCD2 response to 24-hour treatment with 1 μg/ml mitomycin C (MMC). Cells are treated with FA member sgRNAs or non-targeting-control (NTC). FANCD2 monoubiquitination is assessed as the ratio of FANCD2-L (long) to FANCD2-S (short) band intensities (relative L:S ratio). The ratio is graphed relative to NTC, MMC-treated cells. nd=not determined. Uncropped blot is shown in the Source Data. 5D) Clonogenic growth assay of LINE-1(+) RPE cells with sgRNAs targeting the same genes as in (C). n=3 independent experiments. P value calculated with a one-sided T test. […] Quantification to the right of n=2 independent experiments ±SEM. […] Quantification below of n=2 independent experiments ±SEM. Effect of wildtype LINE-1 is statistically significant as assessed by ANOVA (p=0.0143). […] Right, quantification of FANCD2 foci in EdU+HeLa cells. […] 5H) Left, γH2A.X and 53BP1 focus quantification in EdU+TP53^KD cells. […]

ORF2p = experiment: Western blot of ORF2p accumulation in RPE cells with doxycycline-controlled LINE-1 expression construct; assay type: cell-based, human
Source text: (§2) FIGS. 13A and 13B. […] (Day 1 and 3 show little effect. The effect is sustained at day 10. Higher doses of the drug are toxic). The cells used are RPE cells that have a doxycycline (Dox) controlled LINE-1 expression construct. (13A.) Western blot showing ORF2p, ORF1p, and tubulin levels on day 5. Addition of Dox induces LINE-1 expression. Addition of PKRi enhances relative ORF2p expression levels. (13B.) Quantification of ORF2p expression (relative to tubulin) by Western blot as a function PKRi inhibitor dose on different days of the experiment.
Cells were lysed in RIPA buffer with protease/phosphatase inhibitor (cat#5872, Cell Signaling Technology, Danvers, Mass.) or Laemmli Sample Buffer (cat#1610747, Biorad, Hercules, Calif.) by sonication. PAGE was carried out with manufacturer-recommended buffers on 4-20% or 7.5% Mini TGX Gels (Biorad), NuPAGE 4-12% BisTris gels, or NuPAGE 3-8% Tris-Acetate gels (Thermo). Semi-dry transfers were carried out for Biorad gels or NuPAGE BisTris gels at 2.5 A for 5-15 minutes using the Trans-Blot-Turbo (Biorad). Wet transfers were carried out for Tris-Acetate gels at 30V overnight. All blocking was performed with Odyssey Blocking Buffer (Licor). Primary antibodies were incubated with membranes overnight at 4C, then infrared-conjugated secondaries (Licor) were added 1:10,000 and imaged on a Licor Odyssey Scanner. Quantifications were carried out using Image Studio v4.0. Blots were stripped with Reblot Plus Strong Solution (Millipore Sigma).
(§3) (Day 1 and 3 show little effect. The effect is sustained at day 10. Higher doses of the drug are toxic.) The finding is significant as proof-of-principle that specific cellular pathways are involved in uncoupling the expression of LINE-1 encoded proteins. As such increasing ORF2p intracellularly in tumors can cause tumor cell death.

RPE cells = assay type: cell-based
Source text: as §2, §3

luciferase(+) cells = experiment: Clonogenic growth assay, luciferase(+) control cells; assay type: cell-based
Procedure: as §1

[1] = system: Tet-On TP53KD cells expressing LINE-1; experiment: qRT-PCR of LINE-1-induced IFN response with nucleoside reverse transcriptase inhibitors; assay type: cell-based; conditions: 5 μM for 72 hours
Procedure: 250,000 Tet-On TP53^KD cells expressing Luciferase or LINE-1 were plated in T25 flasks with 1 ng/mL doxycycline added and treated with 5 μM zalcitabine (ddC) or 5 μM didanosine (ddI) for 72 hours. Cells were lysed and RNA were extracted using Quick-RNA MicroPrep kit (Zymo Research).
cDNA was generated using the iScript kit (Biorad, Hercules, Calif.) following RNA extraction using the Quick-RNA Microprep kit (Zymo). Primers were designed using Primer3 and tested against cDNA to ensure single bands were generated in the PCR. Real-time PCR was performed for 40 cycles (98C×15 seconds, 60C×30 seconds) using SSOAdvanced 2X Master mix (Biorad) on the MyIQ cycler (Biorad). Fold-change expression was determined by the 2^−ΔΔCt method.

TP53KD cells = experiment: γH2A.X and 53BP1 nuclear foci quantification in TP53KD cells; assay type: cell-based; conditions: data not shown
Procedure: (§4) We used either Tet-On TP53^KD cells expressing Luciferase or LINE-1 or HeLa cells transfected with doxycycline-inducible LINE-1 plasmids (pDA007, pDA025, pDA027, pDA033, pDA019) and stably-selected with puromycin for 1-2 weeks. Positive controls were treated with either 6 mM hydroxyurea for 4 hours or 200 ng/mL doxorubicin for 2 hours. 100,000 cells were plated on cover slips and treated with 1000 ng/ml doxycycline for 72 hours. EdU was added for 2 hours and cells were pre-treated with 0.5% Triton X-100 for 5 min, fixed with 3.7% paraformaldehyde for 10 minutes, then permeabilized with 0.5% NP-40 for 10 minutes. EdU Click-iT reaction (ThermoFisher) was performed following manufacturer's instructions. Slides were blocked (1% BSA/PBS-Glycine, 30 minutes) and incubated with polyclonal rabbit FANCD2 (1:1000, Novus Biologicals), rabbit 53BP1 (1:500, Novus Biologicals), or mouse γH2A.X (1:1000, Millipore) for 1 hour at room temperature and then anti-rabbit Alexa Fluor 488 for FANCD2 (1:200, ThermoFisher) and anti-rabbit Alexa Fluor 488 (1:2000, ThermoFisher) and anti-mouse Alexa Fluor 555 (1:2000, ThermoFisher) for 53BP1 and γH2A.X, respectively. Slides were imaged at low magnification with the same equipment as described above with key methodological differences. […] Foci were quantified using a previously published method in MATLAB. […]

HeLa cells = experiment: FANCD2 nuclear foci quantification in EdU-labeled HeLa cells; assay type: cell-based; conditions: S phase (EdU+) cells; p=1.7×10^−8
Procedure: as §4

Sequence of PKR (P19525 whole entry): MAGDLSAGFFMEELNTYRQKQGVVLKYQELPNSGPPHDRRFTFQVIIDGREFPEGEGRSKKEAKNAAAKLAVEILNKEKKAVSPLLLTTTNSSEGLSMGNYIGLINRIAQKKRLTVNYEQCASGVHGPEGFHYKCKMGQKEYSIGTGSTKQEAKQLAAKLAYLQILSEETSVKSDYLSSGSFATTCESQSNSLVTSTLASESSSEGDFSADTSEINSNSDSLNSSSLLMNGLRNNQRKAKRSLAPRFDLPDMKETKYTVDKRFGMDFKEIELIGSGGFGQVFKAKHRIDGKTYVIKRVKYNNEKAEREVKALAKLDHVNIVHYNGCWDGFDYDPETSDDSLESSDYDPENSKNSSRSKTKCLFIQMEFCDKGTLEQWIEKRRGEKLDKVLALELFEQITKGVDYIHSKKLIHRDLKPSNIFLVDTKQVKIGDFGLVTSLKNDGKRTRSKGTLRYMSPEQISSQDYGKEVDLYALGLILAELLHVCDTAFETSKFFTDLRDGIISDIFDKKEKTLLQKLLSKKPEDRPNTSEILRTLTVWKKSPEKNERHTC

## Nc1ncc2[nH]cnc2n1 [2-AP, 2-aminopurine]
PKR; competes for ATP at the ATP binding site of PKR
  potency relative to C16: less potent than C16

## CO[C@@]12[C@H](COC(N)=O)C3=C(C(=O)C(C)=C(N)C3=O)N1C[C@@H]1N[C@@H]12 [MMC, mitomycin C]
RPA2
  chromatin-bound RPA2: induced chromatin-bound RPA2
LINE-1(+) RPE cells; dose-response clonogenic assay, 24 hours treatment
  sensitivity of LINE-1(+) cells compared to luciferase-expressing controls: 1.9 fold
FANCD2
  FANCD2 monoubiquitination (FANCD2-Ub): induced FANCD2-Ub

## O=C1Nc2ccc3ncsc3c2C1=Cc1cnc[nH]1 [PKRi, 6,8-dihydro-8-(1H-imidazol-5-ylmethylene)-7H-pyrrolo[2,3-g]benzothiazol-7-one]
PKR
  IC50: ~200 nM
ORF2p; 0.1 uM, by day 6 of treatment
  accumulation of ORF2p (relative to ORF1p and tubulin): increases the accumulation of ORF2p
ORF2p; Day 1 and 3
  effect on ORF2p accumulation: little effect
ORF2p; by day 5 of treatment, Dox-induced RPE cells
  accumulation of ORF2p (relative to ORF1p and tubulin): dose-dependent increases the accumulation of ORF2p
ORF2p; day 10
  effect on ORF2p accumulation: sustained
RPE cells
  toxicity: toxic

## CS(=O)(=O)c1ccc(-c2cnc(N)c(C(=O)Nc3ccccc3)n2)cc1 [VE-821]
luciferase(+) cells; same dose as in LINE-1(+) cells, data not shown
  effect on viability in luciferase(+) cells: no effect on viability
LINE-1(+) RPE cells; 1 μM vs DMSO vehicle
  sensitization of cells to LINE-1 (ATR inhibition): sensitized cells to LINE-1

## O=c1[nH]cnc2c1ncn2[C@H]1CC[C@@H](CO)O1 [didanosine]
[1]
  effect on LINE-1-induced IFN response: attenuated the IFN response

## COc1cccc2c1C(=O)c1c(O)c3c(c(O)c1C2=O)C[C@@](O)(C(=O)CO)C[C@@H]3O[C@H]1C[C@H](N)[C@H](O)[C@H](C)O1 [doxorubicin]
TP53KD cells
  DNA damage foci (γH2A.X and 53BP1) over the cell cycle: continue to accumulate

## NC(=O)NO [hydroxyurea]
HeLa cells
  number of FANCD2 foci: increased the number of FANCD2 foci

## Nc1ccn([C@H]2CC[C@@H](CO)O2)c(=O)n1 [zalcitabine]
[1]
  effect on LINE-1-induced IFN response: attenuated the IFN response

## pladienolide B [PLA-B]
luciferase(+) cells; same PLA-B dose as for LINE-1(+) cells
  reduction of luciferase(+) clonogenic growth: 6.8%
LINE-1(+) RPE cells; P=0.044
  increased sensitivity of LINE-1(+) vs luciferase(+) cells: 4.1 fold
LINE-1(+) RPE cells; same PLA-B dose as for luciferase(+) cells
  fewer colonies of LINE-1(+) cells: 27.8%
